According to the supplement of paper PMC12463676, “Small-molecule dissolution of stress granules by redox modulation benefits ALS models” (Nature Chemical Biology, 2025):

Key:
[1] = compound: O=[As]([O-])(O)O.[K+] [potassium arsenate]; experiment: thermal stability z-score vs DMSO; higher = more thermally stabilized by treatment; settings: HeLa; arsenate concentration 1 mM
Procedure: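 Cellular thermal proteome profiling in HeLa cells treated with 1 mM arsenate for 1 h (DMSO pretreatment), heated to ten temperatures (37-66.3 °C). Soluble protein was quantified by TMT mass spectrometry relative to DMSO controls; the thermal stability score was transformed to a z-score; mean of n = 3 experiments.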

[2] = compound: NC(=O)CCCCC1CCSS1 [lipoamide]; experiment: as above; settings: HeLa, lipoamide concentration 100 µM
Procedure: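 Cellular thermal proteome profiling in HeLa cells. Cells were treated with 100 µM lipoamide for 1 h, with or without 1 mM arsenate for a further 1 h, then heated to ten temperatures (37-66.3 °C), and soluble protein was quantified by TMT mass spectrometry relative to 0.1% DMSO controls. The thermal stability score (sum of log2 fold changes minus the abundance score) was transformed to a z-score; mean of n = 3 experiments.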

[3] = arsenate co-treatment: 1 mM arsenate 1 h
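Further: each temperature applied for 3 min, abundance score taken as mean log2 fold change at the two lowest temperatures, z-score obtained by mean subtraction and division by SD.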

Chain of UniProt O15066 (O15066 whole entry): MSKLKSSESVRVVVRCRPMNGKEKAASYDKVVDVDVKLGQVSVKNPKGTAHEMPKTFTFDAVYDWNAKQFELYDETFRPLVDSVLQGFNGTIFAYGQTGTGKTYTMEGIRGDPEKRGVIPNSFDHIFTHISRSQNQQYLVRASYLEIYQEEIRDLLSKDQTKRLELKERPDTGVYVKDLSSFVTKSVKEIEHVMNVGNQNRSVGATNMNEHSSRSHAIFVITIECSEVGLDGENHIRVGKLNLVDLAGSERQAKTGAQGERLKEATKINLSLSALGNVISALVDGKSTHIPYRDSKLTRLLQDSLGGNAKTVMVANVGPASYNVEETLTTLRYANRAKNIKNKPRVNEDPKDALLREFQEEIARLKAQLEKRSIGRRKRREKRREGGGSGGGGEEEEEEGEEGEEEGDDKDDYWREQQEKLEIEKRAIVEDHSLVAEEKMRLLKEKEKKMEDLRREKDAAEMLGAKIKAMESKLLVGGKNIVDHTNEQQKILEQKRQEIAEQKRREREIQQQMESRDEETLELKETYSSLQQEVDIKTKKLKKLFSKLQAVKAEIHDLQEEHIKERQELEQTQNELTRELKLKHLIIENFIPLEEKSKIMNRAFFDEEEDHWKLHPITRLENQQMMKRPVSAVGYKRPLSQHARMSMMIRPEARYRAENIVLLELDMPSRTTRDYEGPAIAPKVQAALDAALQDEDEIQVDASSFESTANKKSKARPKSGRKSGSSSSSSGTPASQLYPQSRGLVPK
Chain of UniProt O60333 (O60333 whole entry): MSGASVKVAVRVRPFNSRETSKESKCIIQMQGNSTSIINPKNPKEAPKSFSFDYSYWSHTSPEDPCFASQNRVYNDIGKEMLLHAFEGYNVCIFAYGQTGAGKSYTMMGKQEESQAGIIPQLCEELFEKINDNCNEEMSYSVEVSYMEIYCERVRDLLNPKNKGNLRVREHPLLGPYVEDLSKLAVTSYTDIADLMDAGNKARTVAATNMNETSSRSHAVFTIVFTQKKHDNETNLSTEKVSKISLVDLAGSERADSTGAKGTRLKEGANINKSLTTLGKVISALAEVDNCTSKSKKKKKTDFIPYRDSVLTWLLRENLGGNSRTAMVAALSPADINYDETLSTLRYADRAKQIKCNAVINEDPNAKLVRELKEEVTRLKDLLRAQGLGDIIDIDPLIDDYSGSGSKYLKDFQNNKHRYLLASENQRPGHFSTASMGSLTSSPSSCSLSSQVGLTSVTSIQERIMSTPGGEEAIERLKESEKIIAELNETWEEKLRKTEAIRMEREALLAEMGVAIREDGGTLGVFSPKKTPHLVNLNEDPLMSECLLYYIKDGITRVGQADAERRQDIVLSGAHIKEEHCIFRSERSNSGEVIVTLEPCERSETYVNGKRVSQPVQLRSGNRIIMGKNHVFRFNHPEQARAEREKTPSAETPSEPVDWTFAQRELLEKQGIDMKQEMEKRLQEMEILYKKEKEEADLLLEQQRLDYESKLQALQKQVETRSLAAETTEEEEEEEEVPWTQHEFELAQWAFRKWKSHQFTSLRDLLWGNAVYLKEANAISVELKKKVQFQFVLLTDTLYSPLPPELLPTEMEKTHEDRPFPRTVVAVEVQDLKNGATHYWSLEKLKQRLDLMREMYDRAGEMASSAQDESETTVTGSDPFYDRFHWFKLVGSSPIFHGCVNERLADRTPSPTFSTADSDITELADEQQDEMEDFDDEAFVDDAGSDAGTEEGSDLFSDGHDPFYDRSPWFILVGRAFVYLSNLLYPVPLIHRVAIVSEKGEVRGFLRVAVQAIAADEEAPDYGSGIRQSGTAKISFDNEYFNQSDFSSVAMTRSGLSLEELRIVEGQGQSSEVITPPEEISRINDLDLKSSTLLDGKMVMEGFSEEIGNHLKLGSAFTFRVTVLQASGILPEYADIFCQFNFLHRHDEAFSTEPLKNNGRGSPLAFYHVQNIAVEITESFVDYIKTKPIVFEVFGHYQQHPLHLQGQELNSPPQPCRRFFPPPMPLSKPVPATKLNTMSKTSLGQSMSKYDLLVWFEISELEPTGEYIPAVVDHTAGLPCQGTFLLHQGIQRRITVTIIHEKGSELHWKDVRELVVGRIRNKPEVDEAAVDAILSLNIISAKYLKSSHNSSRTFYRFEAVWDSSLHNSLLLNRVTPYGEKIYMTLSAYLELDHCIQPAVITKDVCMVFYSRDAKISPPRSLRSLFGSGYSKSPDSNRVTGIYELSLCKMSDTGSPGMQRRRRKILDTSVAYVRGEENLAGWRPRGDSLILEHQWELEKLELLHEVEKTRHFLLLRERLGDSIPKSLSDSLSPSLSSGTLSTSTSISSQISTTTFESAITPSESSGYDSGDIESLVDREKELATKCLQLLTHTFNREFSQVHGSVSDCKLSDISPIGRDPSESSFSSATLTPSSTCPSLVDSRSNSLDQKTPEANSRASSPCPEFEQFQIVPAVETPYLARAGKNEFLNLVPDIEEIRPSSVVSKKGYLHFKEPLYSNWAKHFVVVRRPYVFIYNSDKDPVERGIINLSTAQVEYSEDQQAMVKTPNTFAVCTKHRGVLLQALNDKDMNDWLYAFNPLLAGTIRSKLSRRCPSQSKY
Chain of UniProt O95235 (O95235 whole entry): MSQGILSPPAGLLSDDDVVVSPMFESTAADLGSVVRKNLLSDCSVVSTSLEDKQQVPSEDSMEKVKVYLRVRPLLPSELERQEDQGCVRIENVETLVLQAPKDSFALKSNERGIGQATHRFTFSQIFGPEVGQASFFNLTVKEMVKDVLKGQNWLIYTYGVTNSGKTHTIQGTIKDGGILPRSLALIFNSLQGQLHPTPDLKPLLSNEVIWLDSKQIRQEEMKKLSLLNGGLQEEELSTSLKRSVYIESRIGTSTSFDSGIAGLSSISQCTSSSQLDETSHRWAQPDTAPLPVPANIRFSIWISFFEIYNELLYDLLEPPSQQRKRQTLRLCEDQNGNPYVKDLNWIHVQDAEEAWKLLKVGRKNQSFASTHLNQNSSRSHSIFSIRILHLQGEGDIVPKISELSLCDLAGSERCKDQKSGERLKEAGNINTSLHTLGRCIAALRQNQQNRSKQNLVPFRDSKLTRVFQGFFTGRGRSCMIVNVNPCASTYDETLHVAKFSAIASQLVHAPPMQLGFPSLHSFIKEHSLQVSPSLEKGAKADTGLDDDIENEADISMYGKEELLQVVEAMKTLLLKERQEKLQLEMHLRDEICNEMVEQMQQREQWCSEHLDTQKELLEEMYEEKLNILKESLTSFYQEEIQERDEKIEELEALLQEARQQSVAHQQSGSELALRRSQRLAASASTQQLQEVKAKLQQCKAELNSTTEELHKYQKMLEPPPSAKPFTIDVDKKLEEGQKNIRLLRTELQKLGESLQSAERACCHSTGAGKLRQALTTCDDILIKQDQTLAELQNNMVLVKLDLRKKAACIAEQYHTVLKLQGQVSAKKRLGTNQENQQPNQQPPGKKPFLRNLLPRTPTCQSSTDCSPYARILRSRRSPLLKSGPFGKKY
Chain of UniProt Q96EK5 (Q96EK5 whole entry): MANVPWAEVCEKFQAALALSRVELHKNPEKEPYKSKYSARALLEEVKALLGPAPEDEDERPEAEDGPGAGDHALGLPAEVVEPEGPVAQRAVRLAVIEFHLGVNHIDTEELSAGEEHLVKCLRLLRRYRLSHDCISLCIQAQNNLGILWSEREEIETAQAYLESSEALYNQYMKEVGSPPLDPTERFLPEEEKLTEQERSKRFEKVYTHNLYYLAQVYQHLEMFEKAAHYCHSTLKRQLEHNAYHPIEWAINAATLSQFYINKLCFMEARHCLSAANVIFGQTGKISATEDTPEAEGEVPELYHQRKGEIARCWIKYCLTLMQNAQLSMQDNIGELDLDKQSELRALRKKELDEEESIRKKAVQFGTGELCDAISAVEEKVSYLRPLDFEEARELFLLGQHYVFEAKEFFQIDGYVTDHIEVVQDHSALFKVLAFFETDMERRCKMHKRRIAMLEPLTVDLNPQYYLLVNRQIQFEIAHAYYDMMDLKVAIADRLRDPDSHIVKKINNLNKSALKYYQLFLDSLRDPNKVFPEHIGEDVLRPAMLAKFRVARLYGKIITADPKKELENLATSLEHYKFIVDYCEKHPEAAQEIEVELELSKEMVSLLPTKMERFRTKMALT
Chain of UniProt Q99661 (Q99661 whole entry): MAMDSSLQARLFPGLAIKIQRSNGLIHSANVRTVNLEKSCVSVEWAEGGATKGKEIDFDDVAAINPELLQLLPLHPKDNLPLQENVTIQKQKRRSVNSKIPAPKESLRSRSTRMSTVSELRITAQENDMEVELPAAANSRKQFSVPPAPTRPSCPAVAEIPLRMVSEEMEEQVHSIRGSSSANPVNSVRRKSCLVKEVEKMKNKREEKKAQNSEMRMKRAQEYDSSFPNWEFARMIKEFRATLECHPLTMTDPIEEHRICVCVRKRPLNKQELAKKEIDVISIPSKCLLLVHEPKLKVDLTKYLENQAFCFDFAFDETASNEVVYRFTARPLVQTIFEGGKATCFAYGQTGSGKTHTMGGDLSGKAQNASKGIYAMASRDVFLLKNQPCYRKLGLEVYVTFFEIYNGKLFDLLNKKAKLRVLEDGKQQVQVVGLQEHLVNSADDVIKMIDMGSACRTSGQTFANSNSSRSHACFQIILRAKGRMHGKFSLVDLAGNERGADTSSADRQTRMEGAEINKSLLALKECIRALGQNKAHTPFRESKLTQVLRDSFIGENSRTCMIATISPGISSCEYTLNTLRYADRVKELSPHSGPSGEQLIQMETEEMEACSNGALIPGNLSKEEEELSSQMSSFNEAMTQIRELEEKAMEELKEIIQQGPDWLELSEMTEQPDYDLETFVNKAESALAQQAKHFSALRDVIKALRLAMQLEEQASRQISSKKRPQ
Chain of UniProt Q96AT1 (Q96AT1 whole entry): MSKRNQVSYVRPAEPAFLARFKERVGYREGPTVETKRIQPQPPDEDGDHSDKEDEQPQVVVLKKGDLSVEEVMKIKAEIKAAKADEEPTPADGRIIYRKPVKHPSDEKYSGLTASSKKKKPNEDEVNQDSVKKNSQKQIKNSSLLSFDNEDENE

Target	thermal stability z-score [1]	thermal stability z-score [2, 3]	thermal stability z-score ([2]; arsenate co-treatment: none)
KIAA0368|ECM29	0.537	-0.212	0.501
KIAA0391 (UniProt O15091)	-0.0848	-0.0274	0.14
KIAA0586 (UniProt Q9BVV6)	-0.133	0.234	0.264
KIAA0907 (UniProt Q7Z7F0)	-0.94	-0.462	-1.09
KIAA0930 (UniProt Q6ICG6)	0.706	0.193	0.227
KIAA1033 (UniProt Q2M389)	-0.0284	-0.344	-0.193
KIAA1143 (UniProt Q96AT1)	-0.385	-0.286	0.26
KIAA1217 (UniProt Q5T5P2)	0.188	-0.00757	-0.0174
KIAA1429 (UniProt Q69YN4)	-0.0736	-0.266	-0.035
KIAA1468 (UniProt Q9P260)	-0.0466	0.284	0.0862
KIAA1522 (UniProt Q9P206)	0.286	-0.388	-0.0277
KIAA1524 (UniProt Q8TCG1)	0.662	-0.00458	-0.0673
KIAA2013 (UniProt Q8IYS2)	-1.04	1.03	1.5
KIDINS220 (UniProt Q9ULH0)	0.0983	-0.105	0.516
KIF1B (UniProt O60333)	-0.321	-0.488	-0.322
KIF1BP (UniProt Q96EK5)	0.587	0.371	-0.0427
KIF1C (UniProt O43896)	-0.086	-0.00389	0.0165
KIF2A (UniProt O00139)	-0.0587	-0.584	-0.0403

Target	thermal stability z-score [1]	thermal stability z-score [2, 3]	thermal stability z-score ([2]; arsenate co-treatment: none)
KIF2C (UniProt Q99661)	0.56	-0.47	-0.0787
KIF3A (UniProt Q9Y496)	0.523	-0.146	0.418
KIF3B (UniProt O15066)	-0.47	0.285	-0.318
KIF4A (UniProt O95239)	-0.219	-0.0934	0.023
KIF5B (UniProt P33176)	1.17	0.397	0.256
KIF11 (UniProt P52732)	1.19	-0.347	0.00677
KIF13A (UniProt Q9H1H9)	0.0799	0.286	-0.0098
KIF14 (UniProt Q15058)	-0.00998	0.0801	0.0434
KIF15 (UniProt Q9NS87)	0.921	-0.328	-0.386
KIF20A (UniProt O95235)	-0.154	0.142	0.152
KIF21A (UniProt Q7Z4S6)	0.269	-0.586	-0.117
KIF22 (UniProt Q14807)	-0.386	-0.451	0.147
KIF23 (UniProt Q02241)	-0.0543	0.207	0.324
KIFC1 (UniProt Q9BW19)	-0.106	0.126	0.0537
KIFC3 (UniProt Q9BVG8)	-0.23	-0.119	-0.358
KIN (UniProt O60870)	-0.174	-0.0116	0.0339
KIRREL (UniProt Q96J84)	0.892	0.0439	-0.449
